For 28 compounds, IC50 results are on record in patent US10668067B2, “Pyridine sulfonamides” (AMGEN INC., priority 2016, dated 2020).

Sequence of human Nav1.7 (Q15858 whole entry): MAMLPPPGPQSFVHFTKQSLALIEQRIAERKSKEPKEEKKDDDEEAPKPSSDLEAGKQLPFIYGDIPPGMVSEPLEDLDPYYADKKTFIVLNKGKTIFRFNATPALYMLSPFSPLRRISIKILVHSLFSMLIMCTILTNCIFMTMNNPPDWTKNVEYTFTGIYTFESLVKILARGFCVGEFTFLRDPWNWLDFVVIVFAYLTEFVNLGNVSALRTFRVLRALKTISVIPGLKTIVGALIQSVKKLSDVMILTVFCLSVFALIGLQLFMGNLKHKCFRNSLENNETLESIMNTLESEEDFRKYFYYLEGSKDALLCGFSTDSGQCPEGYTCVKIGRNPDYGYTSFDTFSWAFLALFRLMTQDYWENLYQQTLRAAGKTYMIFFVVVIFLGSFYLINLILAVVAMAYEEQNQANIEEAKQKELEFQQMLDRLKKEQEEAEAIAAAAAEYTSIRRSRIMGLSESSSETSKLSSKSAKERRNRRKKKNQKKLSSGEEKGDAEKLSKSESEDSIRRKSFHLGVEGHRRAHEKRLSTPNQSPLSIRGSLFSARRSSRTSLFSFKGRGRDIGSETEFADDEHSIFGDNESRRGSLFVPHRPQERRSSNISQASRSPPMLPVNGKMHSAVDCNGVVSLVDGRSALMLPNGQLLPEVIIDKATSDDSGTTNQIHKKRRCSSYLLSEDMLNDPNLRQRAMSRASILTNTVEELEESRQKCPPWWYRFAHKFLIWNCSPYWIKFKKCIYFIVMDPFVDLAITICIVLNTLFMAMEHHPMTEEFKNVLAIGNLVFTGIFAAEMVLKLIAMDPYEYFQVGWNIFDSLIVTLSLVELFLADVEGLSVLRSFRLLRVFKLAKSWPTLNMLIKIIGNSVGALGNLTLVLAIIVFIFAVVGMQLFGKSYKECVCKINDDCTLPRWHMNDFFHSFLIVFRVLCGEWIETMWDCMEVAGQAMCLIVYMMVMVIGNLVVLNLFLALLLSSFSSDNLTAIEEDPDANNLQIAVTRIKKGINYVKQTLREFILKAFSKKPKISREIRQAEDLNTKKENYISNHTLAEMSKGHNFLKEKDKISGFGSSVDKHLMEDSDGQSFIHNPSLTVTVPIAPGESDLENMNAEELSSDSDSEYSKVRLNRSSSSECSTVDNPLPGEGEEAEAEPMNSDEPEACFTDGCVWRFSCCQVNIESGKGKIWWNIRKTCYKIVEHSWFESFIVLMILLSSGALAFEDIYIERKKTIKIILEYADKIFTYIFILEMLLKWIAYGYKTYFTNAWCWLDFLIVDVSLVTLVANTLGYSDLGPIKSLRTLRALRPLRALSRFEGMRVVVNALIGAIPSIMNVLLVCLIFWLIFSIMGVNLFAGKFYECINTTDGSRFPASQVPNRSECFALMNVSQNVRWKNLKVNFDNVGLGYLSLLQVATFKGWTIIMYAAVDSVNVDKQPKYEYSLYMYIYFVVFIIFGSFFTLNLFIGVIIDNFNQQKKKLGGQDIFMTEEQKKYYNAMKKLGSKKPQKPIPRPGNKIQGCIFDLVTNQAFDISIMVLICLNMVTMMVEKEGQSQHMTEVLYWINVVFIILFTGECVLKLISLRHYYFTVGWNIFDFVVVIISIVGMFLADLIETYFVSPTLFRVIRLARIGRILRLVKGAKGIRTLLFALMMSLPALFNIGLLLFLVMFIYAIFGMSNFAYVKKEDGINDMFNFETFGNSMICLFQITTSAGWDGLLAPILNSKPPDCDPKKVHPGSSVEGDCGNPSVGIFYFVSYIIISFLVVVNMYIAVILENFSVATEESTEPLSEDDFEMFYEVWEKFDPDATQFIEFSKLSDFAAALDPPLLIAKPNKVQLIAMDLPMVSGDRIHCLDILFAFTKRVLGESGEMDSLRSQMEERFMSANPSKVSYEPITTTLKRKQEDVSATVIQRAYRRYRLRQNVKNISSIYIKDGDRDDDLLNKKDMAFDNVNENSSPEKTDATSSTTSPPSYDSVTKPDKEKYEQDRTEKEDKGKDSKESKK

The target in the assay is human Nav1.7 (Homo sapiens (Human), UniProt Q15858). Nature of the assay: Nav 1.7 In Vitro PX Assay (PatchXpress whole cell voltage clamp). It counts as cell-based. As to conditions: in-vitro Nav 1.7 PX data. On the procedure:
HEK 293 cells stably transfected with human Nav1.7 were recorded in whole cell voltage clamp mode with the PatchXpress automated electrophysiology system (Molecular Devices, LLC, Sunnyvale, Calif.). Compound effects were measured on a partially inactivated state of the sodium channel. Cells were clamped to a holding potential yielding 20 to 50% inactivation. To elicit sodium current, channels were activated by pulsing to −10 mV for 20 msec. This voltage protocol was repeated at a rate of 0.1 Hz throughout the experiment. A single concentration of test compound was applied to cells for a duration of 3 minutes. Peak sodium current was measured at the end of the compound addition period to determine percent inhibition. Three to five cells were tested per concentration, and IC50 curves were fitted to percent inhibition as a function of concentration.
For `CNC(=O)N(c1ccc(S(=O)(=O)Nc2ccon2)cn1)c1cc(Cl)c(-c2cc(OC)nc(C(F)(F)F)c2)cc1OC` [Example 1-42, 6-((5-chloro-2-methoxy-4-(2-methoxy-6-(trifluoromethyl)-4-pyridinyl)phenyl)(methylcarbamoyl)amino)-N-3-isoxazolyl-3-pyridinesulfonamide], the IC50 is 29 nM.

In the case of `CNC(=O)N(c1ccc(S(=O)(=O)Nc2ccncn2)cn1)c1cc(Cl)c(-c2ccc(F)c(C(F)(F)F)c2)cc1OC` [Example 3-12, 6-((2-chloro-4′-fluoro-5-methoxy-3′-(trifluoromethyl)-4-biphenylyl)(methylcarbamoyl)amino)-N-4-pyrimidinyl-3-pyridinesulfonamide], the IC50 was 24 nM.

`CNC(=O)N(c1ccc(S(=O)(=O)Nc2ccon2)cn1)c1cc(F)c(-c2ccc(C)c(Cl)c2)cc1OC` [Example 1-17, 6-((3′-chloro-2-fluoro-5-methoxy-4′-methyl-4-biphenylyl)(methylcarbamoyl)amino)-N-3-isoxazolyl-3-pyridinesulfonamide] gave an IC50 of 31 nM.

For the compound `CNC(=O)N(c1ccc(S(=O)(=O)Nc2ccon2)cn1)c1cc(Cl)c(-c2cc(C(F)(F)F)ccc2F)cc1OC` [Example 1-55, 6-((2-chloro-2′-fluoro-5-methoxy-5′-(trifluoromethyl)-4-biphenylyl)(methylcarbamoyl)amino)-N-3-isoxazolyl-3-pyridinesulfonamide], the IC50 worked out at 17 nM.

Compound `CNC(=O)N(c1ccc(S(=O)(=O)Nc2ncccn2)cn1)c1cc(F)c(-c2ccc(F)c(Cl)c2)cc1OC` [Example 2-1, 6-((3′-chloro-2,4′-difluoro-5-methoxy-4-biphenylyl)(methylcarbamoyl)amino)-N-2-pyrimidinyl-3-pyridinesulfonamide] yielded an IC50 of 18 nM.

`CNC(=O)N(c1ccc(S(=O)(=O)Nc2ccon2)cn1)c1cc(-c2cccc(C(F)(F)F)c2)c(Cl)cc1OC` [Example 4-6, 6-((6-chloro-4-methoxy-3′-(trifluoromethyl)-3-biphenylyl)(methylcarbamoyl)amino)-N-3-isoxazolyl-3-pyridinesulfonamide]: the IC50 is 90 nM.

`CNC(=O)N(c1ccc(S(=O)(=O)Nc2ccon2)cn1)c1cc(F)c(-c2cc(OC)cc(C(F)(F)F)c2)cc1OC` [Example 1-9, 6-((2-fluoro-3′,5-dimethoxy-5′-(trifluoromethyl)-4-biphenylyl)(methylcarbamoyl)amino)-N-3-isoxazolyl-3-pyridinesulfonamide] registered an IC50 of 18 nM.

`CNC(=O)N(c1ccc(S(=O)(=O)Nc2ccon2)cn1)c1cc(Cl)c(-c2ccc(F)c(F)c2)cc1OC` [Example 1-65, 6-((2-chloro-3′,4′-difluoro-5-methoxy-4-biphenylyl)(methylcarbamoyl)amino)-N-3-isoxazolyl-3-pyridinesulfonamide] gave an IC50 of 54 nM.

Compound `CNC(=O)N(c1ccc(S(=O)(=O)Nc2ccon2)cn1)c1cc(F)c(-c2ccc(F)c(C)c2)cc1OC` [Example 1-16, 6-((2,4′-difluoro-5-methoxy-3′-methyl-4-biphenylyl)(methylcarbamoyl)amino)-N-3-isoxazolyl-3-pyridinesulfonamide] came in with an IC50 of 61 nM.

Compound `CNC(=O)N(c1ccc(S(=O)(=O)Nc2ccon2)cn1)c1cc(F)c(-c2ccc(Cl)c(F)c2)cc1OC` [Example 1-20, 6-((4′-chloro-2,3′-difluoro-5-methoxy-4-biphenylyl)(methylcarbamoyl)amino)-N-3-isoxazolyl-3-pyridinesulfonamide] registered an IC50 of 50 nM.

`CNC(=O)N(c1ccc(S(=O)(=O)Nc2ccon2)cn1)c1cc(F)c(-c2cccc(OC)c2)cc1OC` [Example 1-8, 6-((2-fluoro-3′,5-dimethoxy-4-biphenylyl)(methylcarbamoyl)amino)-N-3-isoxazolyl-3-pyridinesulfonamide] showed an IC50 of 206 nM.

As for `CNC(=O)N(c1ccc(S(=O)(=O)Nc2ccon2)cn1)c1cc(F)c(-c2cc(C)cc(F)c2)cc1OC` [Example 1-18, 6-((2,3′-difluoro-5-methoxy-5′-methyl-4-biphenylyl)(methylcarbamoyl)amino)-N-3-isoxazolyl-3-pyridinesulfonamide], 146 nM corresponded to half-maximal inhibition (IC50).

For the compound `CNC(=O)N(c1ccc(S(=O)(=O)Nc2ccon2)cn1)c1cc(F)c(-c2ccc(Cl)c(Cl)c2)cc1OC` [Example 1-10, 6-((3′,4′-dichloro-2-fluoro-5-methoxy-4-biphenylyl)(methylcarbamoyl)amino)-N-3-isoxazolyl-3-pyridinesulfonamide], half-maximal inhibition (IC50) required 9 nM.

Compound `CNC(=O)N(c1ccc(S(=O)(=O)Nc2ccon2)cn1)c1cc(Cl)c(-c2cc(Cl)cc(C#N)c2)cc1OC` [Example 1-53, 6-((2,3′-dichloro-5′-cyano-5-methoxy-4-biphenylyl)(methylcarbamoyl)amino)-N-3-isoxazolyl-3-pyridinesulfonamide] had an IC50 of 48 nM.

`CNC(=O)N(c1ccc(S(=O)(=O)Nc2ccon2)cn1)c1cc(Cl)c(-c2ccc(F)c(Cl)c2)cc1OC` [Example 1-60, 6-((2,3′-dichloro-4′-fluoro-5-methoxy-4-biphenylyl)(methylcarbamoyl)amino)-N-3-isoxazolyl-3-pyridinesulfonamide] gave an IC50 of 19 nM.

For `CNC(=O)N(c1ccc(S(=O)(=O)Nc2ncccn2)cn1)c1cc(F)c(-c2cc(OC)cc(C(F)(F)F)c2)cc1OC` [Example 1-82, 6-((2-fluoro-3′,5-dimethoxy-5′-(trifluoromethyl)-4-biphenylyl)(methylcarbamoyl)amino)-N-2-pyrimidinyl-3-pyridinesulfonamide], the IC50 came to 18 nM.

On to `CNC(=O)N(c1ccc(S(=O)(=O)Nc2ccon2)cn1)c1cc(Cl)c(-c2cc(Cl)cc(OC)c2)cc1OC` [Example 1-32, 6-((2,3′-dichloro-5,5′-dimethoxy-4-biphenylyl)(methylcarbamoyl)amino)-N-3-isoxazolyl-3-pyridinesulfonamide], for which the IC50 amounted to 14 nM.

Consider `CNC(=O)N(c1ccc(S(=O)(=O)Nc2ccon2)cn1)c1cc(Cl)c(-c2cc(OC)cc(OC(F)(F)F)c2)cc1OC` [Example 1-51, 6-((2-chloro-3′,5-dimethoxy-5′-(trifluoromethoxy)-4-biphenylyl)(methylcarbamoyl)amino)-N-3-isoxazolyl-3-pyridinesulfonamide], for which the IC50 is 9 nM.

In turn, `CNC(=O)N(c1ccc(S(=O)(=O)Nc2ccon2)cn1)c1cc(Cl)c(-c2cc(F)c(F)c(F)c2)cc1OC` [Example 1-52, 6-((2-chloro-3′,4′,5′-trifluoro-5-methoxy-4-biphenylyl)(methylcarbamoyl)amino)-N-3-isoxazolyl-3-pyridinesulfonamide] gave an IC50 of 31 nM.

`COC(=O)N(c1ccc(S(=O)(=O)Nc2ccon2)cn1)c1cc(Cl)c(-c2cccc(C(F)(F)F)c2)cc1OC` [Example 6, Methyl (2-chloro-5-methoxy-3′-(trifluoromethyl)-[1,1′-biphenyl]-4-yl)(5-(N-(isoxazol-3-yl)sulfamoyl)pyridine-2-yl)carbamate] gave an IC50 of 167 nM. This IC50 lies about 5.4-fold higher than the previous one.

In the case of `CNC(=O)N(c1ccc(S(=O)(=O)Nc2ccon2)cn1)c1cc(F)c(-c2ccc(Cl)c(C(F)(F)F)c2)cc1OC` [Example 1-11, 6-((4′-chloro-2-fluoro-5-methoxy-3′-(trifluoromethyl)-4-biphenylyl)(methylcarbamoyl)amino)-N-3-isoxazolyl-3-pyridinesulfonamide], the midpoint of inhibition, the IC50, lay at 14 nM. Against the preceding compound, the IC50 is about 12-fold lower.

Take `CNC(=O)N(c1ccc(S(=O)(=O)Nc2ccon2)cn1)c1cc(Cl)c(-c2cc(C)c(F)c(OC)c2)cc1OC` [Example 1-50, 6-((2-chloro-4′-fluoro-3′,5-dimethoxy-5′-methyl-4-biphenylyl)(methylcarbamoyl)amino)-N-3-isoxazolyl-3-pyridinesulfonamide]: the IC50 turned out to be 49 nM.

`CNC(=O)N(c1ccc(S(=O)(=O)Nc2ccon2)cn1)c1cc(F)c(-c2cc(OC)cc(OC(F)(F)F)c2)cc1OC` [Example 1-7, 6-((2-fluoro-3′,5-dimethoxy-5′-(trifluoromethoxy)-4-biphenylyl)(methylcarbamoyl)amino)-N-3-isoxazolyl-3-pyridinesulfonamide] returned a half-inhibitory concentration (IC50) of 18 nM.

Turning to `CNC(=O)N(c1ccc(S(=O)(=O)Nc2ccon2)cn1)c1cc(F)c(-c2cccc(OC(F)(F)F)c2)cc1OC` [Example 1-14, 6-((2-fluoro-5-methoxy-3′-(trifluoromethoxy)-4-biphenylyl)(methylcarbamoyl)amino)-N-3-isoxazolyl-3-pyridinesulfonamide], the IC50 came out at 17 nM.

In turn, `CNC(=O)N(c1ccc(S(=O)(=O)Nc2ccon2)cn1)c1cc(F)c(-c2ccc(C)c(F)c2)cc1OC` [Example 1-15, 6-((2,3′-difluoro-5-methoxy-4′-methyl-4-biphenylyl)(methylcarbamoyl)amino)-N-3-isoxazolyl-3-pyridinesulfonamide] returned an IC50 of 124 nM.

Compound `CNC(=O)N(c1ccc(S(=O)(=O)Nc2ncccn2)cn1)c1cc(F)c(-c2ccc(F)c(C(F)(F)F)c2)cc1OC` [Example 1-85, 6-((2,4′-difluoro-5-methoxy-3′-(trifluoromethyl)-4-biphenylyl)(methylcarbamoyl)amino)-N-2-pyrimidinyl-3-pyridinesulfonamide] returned an IC50 of 32 nM.

In turn, `CNC(=O)N(c1ccc(S(=O)(=O)Nc2ccon2)cn1)c1cc(Cl)c(-c2ccc(Cl)c(C#N)c2)cc1OC` [Example 1-54, 6-((2,4′-dichloro-3′-cyano-5-methoxy-4-biphenylyl)(methylcarbamoyl)amino)-N-3-isoxazolyl-3-pyridinesulfonamide] returned an IC50 of 52 nM.

For the compound `CNC(=O)N(c1ccc(S(=O)(=O)Nc2ccnc(C)n2)cn1)c1cc(Cl)c(-c2ccc(F)c(C(F)(F)F)c2)cc1OC` [Example 3-11, 6-((2-chloro-4′-fluoro-5-methoxy-3′-(trifluoromethyl)-4-biphenylyl)(methylcarbamoyl)amino)-N-(2-methyl-4-pyrimidinyl)-3-pyridinesulfonamide], the IC50 is 26 nM.
